In patent publication US6126795A, “Electroenzymatic reactor and method for enzymatic catalysis” (The United States of America as represented by the …, priority 1998, dated 2000):

Columns and labels:
[1] = target: CYP101 (Pseudomonas putida, UniProt P00183); test: Electrode-driven camphor hydroxylation by CYP101/Pdx in electroenzymatic reactor; type: biochemical
Excerpt: The proteins were then purified using ion-exchange chromatography and size exclusion chromatography. The final protein preparations were at least 95% pure. On the basis of absorbance ratios, the mole fraction purity ×100 of each subunit protein was greater than 90. In addition, several preparations of the proteins were examined by high-resolution two-dimensional gel electrophoresis and by imaging analysis, and the mole fraction purity ×100 was estimated to be greater than 97 for each protein.
The working electrodes used in the following examples were antimony-doped, tin-oxide coated (0.3 μm thickness) glass slides (4×2 cm, Delta Technologies, Stillwater, Min.), with donor concentration as determined from Mott-Schottky plots (Nd =5×10^20 cm^-3). Prior to the biocatalysis experiments, the electrodes were soaked and sonicated in 1 M NaOH for approximately two hours, then rinsed with distilled water. They were activated in 15% HCl solution using a potential sweep between -0.5 and 1.5 V at 10 mV/s, and stored in distilled water. Film electrode resistance, as measured by a four point probe (Cascade Mictrotech, Inc., Model C4A-44 Beaverton, Oreg.), was 40-50 .OMEGA./sq.
The reference electrode was a standard Ag/AgCl (3M KCl) reference micro-electrode (Abtech Inc. RE803). The counter electrode was made as a coil of 0.5 mm thick Pt wire.
The buffer media was prepared using 0.16 M aqueous KCl and 0.01 M aqueous MgCl2, adjusted to about pH 7.4 with Tris-HCl buffer.
The product, 5-exo-hydroxy-camphor, was identified by GC-MS (gas chromatography and mass spectrophotometry) and quantified by GC-FID (gas chromatography and flame ionization detection). GC injection samples of 1-2 μL were prepared from approximately equal volumes of reaction mixture and an extraction cocktail comprising 0.3 g methylene chloride and 0.02 g KCl with 300 μM n-decane as an internal standard. The GC was operated with a DB-5 column (J&W Scientific, Folsom, Calif.) (30 m) with temperature programing (2 minutes at 60° C., ramp at 10° C./min to 120° C., 2 min at 120° C., ramp up at 15° C./min 160° C.). Retention times (He carrier gas at 2.8 bar pressure) were: n-decane 4.7 minutes, camphor 7.0 minutes, 5-exo-hydroxy-camphor 10.9 minutes. […] Identification of 5-exo-hydroxy-camphor as the product was done by comparing the m/e (mass/charge ratio) pattern (VG analytical Mass Spectrometer, 70 eV electron impact energy) with published spectra; see White et al., Arch. Biochem. Biophys.228, 493-502, 1984, the disclosure of which is incorporated herein by reference.
The same cell as described in Example 1 was equipped with two antimony-doped, tin-oxide electrodes and one platinum wire counter electrode. […] Electrolysis was started by applying a potential equal to -0.7 V (vs Ag/AgCl) to the tin oxide electrodes. […] Therefore, the enzyme underwent about 20 turnovers during the four hour period.
The same cell as described in Example 1 was equipped with-one antimony-doped, tin-oxide electrode and a Pt wire counter electrode isolated by a glass frit. A Pt sheet (0.5×10×30 mm) was positioned close to the surface of the working electrode. […] Initial GC analysis indicated no trace of the product. A potential equal to -0.7 V (vs Ag/AgCl) was applied to the tin oxide electrode. The Pt sheet was left at open circuit potential. After 5 hours of electrolysis, during which the solution was stirred by a magnetic stirrer, 442 μM product (5-exo-hydroxy-camphor) was detected by GC analysis. This corresponds to 1922 turnovers of the enzyme at an average rate of 384 turnovers/hour.
An antimony-doped, tin-oxide working electrode was wrapped in a Pt grid, which was electrically isolated from the conductive side of the electrode. A Pt wire, isolated from the working electrode and Pt grid by a glass frit, was utilized as a counter electrode. […]

[2] = Pdx integrity/activity after electrolysis and redox behaviour on antimony-doped tin-oxide electrode; type: physicochemical
Method: In a 1 cm path-length spectrophotometer cell, with 30 μM Pdx in the above-specified buffer, a potential of -0.7 V (vs. Ag/AgCl) was applied using a potentiostat, and an absorption spectrum was recorded through the transparent SnO2 electrode and 1 cm of reactor solution. The electrode surface area to solution volume ratio was about 5/m. A characteristic absorption spectrum of the oxidized Pdx was recorded initially. After 30 minutes of electrolytic reduction at -0.7 V, a characteristic spectrum of reduced Pdx was recorded. After an additional 30 minutes of electrolysis, the potential was switched to 0 V and a characteristic spectrum of oxidized Pdx was obtained. After electrolysis was complete, 50% of the initial activity of Pdx was recovered, as determined by the method described in Phillips and Langdon, J. Biol. Chem., 237, 2652 (1962), the disclosure of which is incorporated herein by reference. […] The recorded current-potential dependencies were stable and reproducible throughout the 6 hour period. […] The method described in this Example can be used to determine whether the working electrode has redox activity toward the redox carrier.
An antimony-doped, tin-oxide working electrode was wrapped in a Pt grid, which was electrically isolated from the conductive side of the electrode. A Pt wire, isolated from the working electrode and Pt grid by a glass frit, was utilized as a counter electrode. […] After 15.5 hours or electrolysis at -0.65 V (vs Ag/AgCl) and room temperature with continuous stirring, the solution contained 222 μM of product (5-exo-hydroxy-camphor), which corresponds to 1127 turnovers of the enzyme.

Molecule | Product Turnover Rate ([1]; 12.8 μM CYP101 (no Pdx), Argon Purge, 800 μM camphor, -0.7 V, 21-22° C.) | Product Turnover Rate ([1]; 41 μM Pdx (no CYP101), Argon Purge, 800 μM camphor, -0.7 V, 21-22° C.) | Product Turnover Rate ([1]; 41 μM Pdx + 0.41 μM CYP101, Air Saturated, 800 μM camphor, -0.7 V, 21-22° C.) | Product Turnover Rate ([1]; 55 μM Pdx + 0.18 μM CYP101, Argon Purge, 800 μM camphor, -0.7 V, 21-22° C.) | Product Turnover Rate ([1]; 108 μM Pdx + 0.23 μM CYP101, Argon Purge, 800 μM camphor, -0.7 V, 21-22° C.) | Product Turnover Rate ([1]; 1030 μM Pdx + 0.13 μM CYP101, Argon Purge, initial camphor 2 mM, -0.7 V, 21-22° C.) | Product Turnover Rate ([1]; 1030 μM Pdx + 0.13 μM CYP101, Argon Purge, initial camphor concentration was mM, 37° C., -0.7 V) | turnovers of the enzyme ([1]; Example 2: 10 μM CYP101, 118 μM Pdx, 600 μM camphor, -0.7 V, 240 minutes, argon purge) | average rate of enzyme turnover ([1]; Example 3: 0.23 μM CYP101, 108 μM Pdx, 626 μM camphor, -0.7 V, 5 hours) [turnovers/hour] | turnovers of the enzyme ([1]; Example 3: 0.23 μM CYP101, 108 μM Pdx, 626 μM camphor, -0.7 V, 5 hours, Pt sheet near working electrode) [turnovers] | turnovers of the enzyme ([1]; Example 4: 0.2 μM CYP101, 101 μM Pdx, 650 μM camphor, -0.65 V, 15.5 hours, room temperature, Pt grid) [turnovers] | formal potential [2] [V vs Ag/AgCl] | initial activity of Pdx recovered after electrolysis ([2]; Example 1: 30 μM Pdx, electrolysis at -0.7 V then 0 V on SnO2 electrode) [%] | Pdx remaining intact after electrolysis (% of the initial concentration) ([2]; Example 4: 101 μM initial Pdx, 15.5 hours at -0.65 V) | Pdx remaining intact after electrolysis (concentration) ([2]; Example 4: 101 μM initial Pdx, 15.5 hours at -0.65 V, spectrophotometric analysis)
CC12CCC(CC1=O)C2(C)C (stereo not drawn) [camphor] | 0 nmol 5exo-hydroxy-camphor/min/ | 0 nmol 5exo-hydroxy-camphor/min/ | 0.9 nmol 5exo-hydroxy-camphor/min/ | 4.2 nmol 5exo-hydroxy-camphor/min/ | 6.4 nmol 5exo-hydroxy-camphor/min/ | 34 nmol 5exo-hydroxy-camphor/min/ | 36 nmol 5exo-hydroxy-camphor/min/ | about 20 turnovers | 384 | 1922 | 1127 |  |  |  | 
Pdx: putidaredoxin, a 2Fe-2S protein, redox carrier of the CYP101 system (protein, UniProt P00259 2-107, looked up) Putidaredoxin: SKVVYVSHDGTRRELDVADGVSLMQAAVSNGIYDIVGDCGGSASCATCHVYVNEAFTDKVPAANEREIGMLECVTAELKPNSRLCCQIIMTPELDGIVVDVPDRQW |  |  |  |  |  |  |  |  |  |  |  | -0.42 | 50 | about 85% | about 85 μM
